Assay results as given in patent publication US20020040053A1, “Antioxidant containing vitamin E metabolite” (priority 2000, published 2002).

Experiments:
[1] = 500IU RRR-α-tocopherol administered to human subject; cited from earlier work
[2] = test system: LDL; assay: Oxidative degeneration LDL assay using azo-compound (V-70); format: biochemical, human; conditions: for anti-oxidative activity on LDL (lag-time): added to LDL concentration-dependently, final concentration 60-1000 ng; for lag-time (time during which conjugate diene production was inhibited): final concentration 1 μg, LDL from eight male and female adults, V-70 200 μM, about 70 μg/mL LDL protein, control 88.1±29.4 minutes
Procedure: Blood collected from human subject was centrifuged at 3000 rpm for 10 minutes to isolate plasma. Next, KBr was added to 1.1 mL of the plasma which was then subjected to density gradient ultra-centrifugation (Single spin differential centrifugation) to collect LDL. After the determination of protein concentration, LDL was prepared by PBS.
In vitro assay of oxidatively denatured LDL was performed according to the method described by Kondo, et al. This method involves use of 2,2′-azobis([…]-2,4-dimethylvaleronitrile; V-70) as the oxidation starter. Final concentration of V-70 was 200 μM for about 70 μg/mL of LDL protein concentration, and production of the conjugate dienes of LDL was assayed at 234 nm for 300 minutes. The time during which conjugate diene production was inhibited was indicated as lag-time. The efficacy of each antioxidants was evaluated by adding the compound and V-70 at the same time and determining the lag-time caused by the compound.

SMILES	plasma α-CEHC concentration [1]	anti-oxidative activity on LDL (lag-time) [2]	lag-time (time during which conjugate diene production was inhibited) [2]	extension rate of lag-time (control = 1), FIG. 1 ([2]; final concentration 60 ng, close to 200 pmol/mL (lower concentration))	anti-oxidative effects on LDL, comparison between compounds ([2]; final concentration 1 μg (higher concentration))
Cc1c(C)c2c(c(C)c1O)CC[C@@](C)(CCC[C@H](C)CCC[C@H](C)CCCC(C)C)O2 [RRR-α-tocopherol]	200 pmol/mL				
Cc1c(C)c2c(c(C)c1O)CCC(C)(CCC(=O)O)O2 (stereo not drawn) [α-CEHC, 2,5,7,8-Tetramethyl-2-(β-carboxyethyl)-6-hydroxychromane]		prolonged lag-times concentration-dependently	190.8 ± 65.1 min		
Cc1c(O)cc2c(c1C)OC(C)(CCC(=O)O)CC2 (stereo not drawn) [γ-CEHC, 2,7,8-trimethyl-2-(β-carboxyethyl)-6-hydroxychromane]		prolonged lag-times concentration-dependently	263.1 ± 114.8 min	greater increase in extension rate of lag-time than those of α-CEHC and Trolox groups	significantly stronger anti-oxidative effects on LDL than α-CEHC did
